Assay results reported in patent publication US20100111874A1, “METHOD OF CANCER DETECTION AND TREATMENT” (University of Medicine and Dentistry of New Jresey, priority 2007, published 2010).

Molecular target: T1, TOP1-DNA covalent complexes (Homo sapiens, UniProt P11387)
T1 construct: endogenous in cells; host or cells: MCF7 and MCF7/RC breast cancer cells
T1 sequence (P11387 2-765 limits assumed): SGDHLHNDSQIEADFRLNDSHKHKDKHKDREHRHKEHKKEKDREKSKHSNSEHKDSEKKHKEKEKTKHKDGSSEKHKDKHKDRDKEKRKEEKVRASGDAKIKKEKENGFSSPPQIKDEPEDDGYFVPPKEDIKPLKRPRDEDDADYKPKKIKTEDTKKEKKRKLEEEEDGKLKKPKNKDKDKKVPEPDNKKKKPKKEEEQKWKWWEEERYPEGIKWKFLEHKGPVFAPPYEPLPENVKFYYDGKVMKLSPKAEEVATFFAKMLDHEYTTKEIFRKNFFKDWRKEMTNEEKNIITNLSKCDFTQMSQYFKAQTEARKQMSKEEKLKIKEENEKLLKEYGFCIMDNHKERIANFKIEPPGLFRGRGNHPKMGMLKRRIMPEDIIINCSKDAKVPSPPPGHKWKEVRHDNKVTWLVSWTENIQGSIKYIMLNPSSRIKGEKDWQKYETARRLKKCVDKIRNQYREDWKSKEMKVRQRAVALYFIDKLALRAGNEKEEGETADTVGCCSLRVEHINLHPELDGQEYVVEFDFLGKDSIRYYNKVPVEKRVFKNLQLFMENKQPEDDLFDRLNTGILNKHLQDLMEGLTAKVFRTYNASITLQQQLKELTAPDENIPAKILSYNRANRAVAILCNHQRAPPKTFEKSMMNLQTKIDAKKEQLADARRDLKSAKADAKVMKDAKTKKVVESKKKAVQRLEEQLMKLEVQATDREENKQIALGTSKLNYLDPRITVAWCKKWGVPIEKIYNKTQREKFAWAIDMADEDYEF
Experiment: Band depletion assay for TOP1 cleavage complexes
Type: cell-based
Details: MCF7/RC vs MCF7; CPT 25 μM for 15 min
Description: Band depletion assay for TOP1 cleavage complexes. Cells (106/sample) are treated with CPT (25 μM in 1% DMSO) for various times at 37° C. Cells are then lysed with 0.2 N NaOH containing 2 mM EDTA as described previously (14). Cell lysates are then neutralized with 1/10 volume of a solution containing 10% NP-40, 1 M Tris (pH 7.4), 0.1 M MgCl2, 0.1 M CaCl2, 10 mM dithiothreitol, 1 mM EGTA, and a mixture of peptide protease inhibitors (100 μg/ml each of leupeptin, pepstatin, and aprotinin), followed by the addition of another 1/10 volume of 2 N HCl. Reactions are terminated by the addition of SDS-PAGE sample buffer. Immunoblotting analysis of cell lysates is carried out using anti-Scl-70 antibody from scleroderma patients as described above.

**Q.** Which “amount of TOP1-DNA covalent complexes” value does the source give for `CC[C@@]1(O)C(=O)OCc2c1cc1n(c2=O)Cc2cc3ccccc3nc2-1` [CPT, camptothecin] here?
**A.** No change
